Measurements: patent US20180186814A1, “TRICYCLIC COMPOUND HAVING SULFINYL OR SULFONYL” (Shionogi & Co., Ltd., priority 2015, published 2018)
≈ marks a conversion by molar mass, not a printed value.

Legend:
Assay type in all cases: cell-based
E. coli SR09613 = test: MIC by microbroth dilution (CLSI), strain No. 6; details: for MIC: Escherichia coli, SR09613, read-out: minimum inhibitory concentration (MIC), Strain No. 6; for minimum inhibitory concentration (MIC), Strain No. 6: E. coli SR09613, CMY-2 type, plasmid AmpC-producing strain, ceftazidime-resistant, cefepime-sensitive, cation-adjusted Mueller-Hinton broth
Description: (§1) The minimum inhibitory concentration (MIC) was measured by the microbroth dilution method in accordance with the procedures recommended by CLSI (Clinical and Laboratory Standards Institute) using 1×10^5 CFU/mL as an inoculum dose and a cation-adjusted Mueller-Hinton broth as a test medium.
(§2) The strains used are as described in the table below.

E. cloacae ATCC13047 = test: MIC by microbroth dilution (CLSI), strain No. 1; details: E. cloacae ATCC13047, AmpC, ceftazidime-resistant, cefepime-sensitive, cation-adjusted Mueller-Hinton broth; for MIC: Enterobacter cloacae, read-out: minimum inhibitory concentration (MIC), Strain No. 1
Description: as §1, §2

K. pneumoniae SR01453 = test: MIC by microbroth dilution (CLSI), strain No. 3; details: K. pneumoniae SR01453, NDM-1, MBL-producing strain, carbapenem-resistant, cation-adjusted Mueller-Hinton broth; for MIC: Klebsiella pneumoniae, read-out: minimum inhibitory concentration (MIC), Strain No. 3
Description: as §1, §2

E. coli SR09616 = test: MIC by microbroth dilution (CLSI), strain No. 7; details: Escherichia coli, SR09616, read-out: minimum inhibitory concentration (MIC), Strain No. 7
Description: as §1, §2

K. pneumoniae NCTC13443 = test: MIC by microbroth dilution (CLSI), strain No. 4; details: K. pneumoniae NCTC13443, NDM-1, MBL-producing strain, carbapenem-resistant, cation-adjusted Mueller-Hinton broth; for MIC: Klebsiella pneumoniae, read-out: minimum inhibitory concentration (MIC), Strain No. 4
Description: as §1, §2

E. cloacae SR36276 = test: MIC by microbroth dilution (CLSI), strain No. 5; details: E. cloacae SR36276, AmpC, highly AmpC-producing strain, ceftazidime-resistant, cefepime-sensitive, cation-adjusted Mueller-Hinton broth; for MIC: Enterobacter cloacae, read-out: minimum inhibitory concentration (MIC), Strain No. 5
Description: as §1, §2

K. pneumoniae SR01358 = test: MIC by microbroth dilution (CLSI), strain No. 2; details: K. pneumoniae SR01358, KPC-2, KPC-producing strain, cation-adjusted Mueller-Hinton broth; for MIC: Klebsiella pneumoniae, read-out: minimum inhibitory concentration (MIC), Strain No. 2
Description: as §1, §2

Structure (SMILES)	MIC (E. coli SR09613)	MIC (E. cloacae ATCC13047)	MIC (K. pneumoniae SR01453)	MIC (K. pneumoniae NCTC13443)	MIC (E. cloacae SR36276)	also measured
Nc1nc(/C(=N/OCc2ccncc2)C(=O)N[C@@H]2C(=O)N3[C@@H]2[S@@+]([O-])C[C@@H]2CC(=O)O[C@@]23C(=O)O)cs1 [Compound I-040]	4 µg/mL (≈ 7.48 µM)					
C[n+]1ccc(CO/N=C(\C(=O)N[C@@H]2C(=O)N3[C@@H]2[S@@+]([O-])C[C@@H]2CC(=O)O[C@@]23C(=O)[O-])c2csc(N)n2)cc1 [Compound I-041]	0.5 µg/mL (≈ 0.911 µM)	1 µg/mL (≈ 1.82 µM)	0.5 µg/mL (≈ 0.911 µM)			MIC (E. coli SR09616): 2 µg/mL (≈ 3.65 µM)
Nc1nc(/C(=N/OCc2cccnc2)C(=O)N[C@@H]2C(=O)N3[C@@H]2[S@@+]([O-])C[C@@H]2CC(=O)O[C@@]23C(=O)O)cs1 [Compound I-042]	4 µg/mL (≈ 7.48 µM)		2 µg/mL (≈ 3.74 µM)			MIC (E. coli SR09616): 4 µg/mL (≈ 7.48 µM)
C[n+]1cccc(CO/N=C(\C(=O)N[C@@H]2C(=O)N3[C@@H]2[S@@+]([O-])C[C@@H]2CC(=O)O[C@@]23C(=O)[O-])c2csc(N)n2)c1 [Compound I-043]	2 µg/mL (≈ 3.65 µM)		2 µg/mL (≈ 3.65 µM)			
CC(CO)(CO)O/N=C(\C(=O)N[C@@H]1C(=O)N2[C@@H]1[S@@+]([O-])C[C@@H]1CC(=O)O[C@@]12C(=O)O)c1csc(N)n1 [Compound I-045]	0.25 µg/mL (≈ 0.47 µM)	0.5 µg/mL (≈ 0.941 µM)	0.25 µg/mL (≈ 0.47 µM)	8 µg/mL (≈ 15.1 µM)	2 µg/mL (≈ 3.76 µM)	
Nc1nc(/C(=N/OCC(=O)O)C(=O)N[C@@H]2C(=O)N3[C@@H]2[S@@+]([O-])C[C@@H]2CC(=O)O[C@@]23c2nnn[nH]2)cs1 [Compound I-046]		1 µg/mL (≈ 1.9 µM)	0.5 µg/mL (≈ 0.952 µM)		0.5 µg/mL (≈ 0.952 µM)	
CC(=O)NCCO/N=C(\C(=O)N[C@@H]1C(=O)N2[C@@H]1[S@@+]([O-])C[C@@H]1CC(=O)O[C@@]12C(=O)O)c1csc(N)n1 [Compound I-054]						minimum inhibitory concentration (MIC), Strain No. 1 (E. cloacae ATCC13047): 1 µg/mL (≈ 1.89 µM); minimum inhibitory concentration (MIC), Strain No. 3 (K. pneumoniae SR01453): 0.5 µg/mL (≈ 0.946 µM); minimum inhibitory concentration (MIC), Strain No. 5 (E. cloacae SR36276): 4 µg/mL (≈ 7.57 µM); minimum inhibitory concentration (MIC), Strain No. 6 (E. coli SR09613): 0.5 µg/mL (≈ 0.946 µM)
Nc1nc(/C(=N/OCCO)C(=O)N[C@@H]2C(=O)N3[C@@H]2[S@@+]([O-])C[C@@H]2CC(=O)O[C@@]23C(=O)[O-])cs1.[Na+] [Compound I-059]		0.063 µg/mL	0.063 µg/mL	1 µg/mL	0.25 µg/mL	MIC (K. pneumoniae SR01358): 0.5 µg/mL
NC(=O)CO/N=C(\C(=O)N[C@@H]1C(=O)N2[C@@H]1[S@@+]([O-])C[C@@H]1CC(=O)O[C@@]12C(=O)[O-])c1csc(N)n1.[Na+] [Compound I-060]		0.125 µg/mL	0.125 µg/mL	4 µg/mL	0.5 µg/mL	MIC (K. pneumoniae SR01358): 0.5 µg/mL
Nc1nc(/C(=N/OCCC(=O)O)C(=O)N[C@@H]2C(=O)N3[C@@H]2[S@@+]([O-])C[C@@H]2CC(=O)O[C@@]23C(=O)[O-])cs1.[Na+] [Compound I-061]						minimum inhibitory concentration (MIC), Strain No. 1 (E. cloacae ATCC13047): 0.125 µg/mL; minimum inhibitory concentration (MIC), Strain No. 2 (K. pneumoniae SR01358): 0.5 µg/mL; minimum inhibitory concentration (MIC), Strain No. 3 (K. pneumoniae SR01453): 0.25 µg/mL; minimum inhibitory concentration (MIC), Strain No. 4 (K. pneumoniae NCTC13443): 4 µg/mL; minimum inhibitory concentration (MIC), Strain No. 5 (E. cloacae SR36276): 0.25 µg/mL
Nc1nc(/C(=N/OCc2cc(O)no2)C(=O)N[C@@H]2C(=O)N3[C@@H]2[S@H](O)C[C@@H]2CC(=O)O[C@@]23C(=O)[O-])cs1.[Na+] [Compound I-063]						minimum inhibitory concentration (MIC), Strain No. 6 (E. coli SR09613): 4 µg/mL
COC(=O)NCCO/N=C(\C(=O)N[C@@H]1C(=O)N2[C@@H]1[S@@+]([O-])C[C@@H]1CC(=O)O[C@@]12C(=O)[O-])c1csc(N)n1.[Na+] [Compound I-064]			2 µg/mL			
CO/N=C(\C(=O)N[C@@H]1C(=O)N2[C@@H]1S(=O)(=O)C[C@@H]1CC(=O)O[C@@]12C(=O)[O-])c1csc(N)n1.[Na+] [Compound I-070]		1 µg/mL	0.25 µg/mL	4 µg/mL	4 µg/mL	MIC (K. pneumoniae SR01358): 1 µg/mL
CCO/N=C(\C(=O)N[C@@H]1C(=O)N2[C@@H]1S(=O)(=O)C[C@@H]1CC(=O)O[C@@]12C(=O)[O-])c1csc(N)n1.[Na+] [Compound I-071]		2 µg/mL	1 µg/mL	8 µg/mL	4 µg/mL	
NCCO/N=C(\C(=O)N[C@@H]1C(=O)N2[C@@H]1[S@@+]([O-])C[C@@H]1CC(=O)O[C@@]12C(=O)O)c1csc(N)n1 [Compound I-072]	4 µg/mL (≈ 8.22 µM)					MIC (E. coli SR09616): 4 µg/mL (≈ 8.22 µM)
